Measured values taken from patent US12291501B2 (University of Florida Research Foundation, Inc., priority 2021, dated 2025).

Tests used:
α7 nAChR [1] = target: T1, α7 nAChR (Homo sapiens, UniProt P36544); conditions: cited from earlier work
T1 construct: expressed in transfected cells; host or cells: Xenopus laevis oocytes, injected with in vitro transcribed RNA

α7 nAChR [2] = target: T1, α7 nAChR; assay: Two-electrode voltage-clamp, agonist concentration-response, α7 nAChR in Xenopus oocytes; type: cell-based
Text: (§1) Electrophysiology: Xenopus oocytes were microinjected with RNAs to produce functional nAChR which were characterized by two-electrode voltage-clamp measurements. FIGS. 5A-7D present concentration-response curves for the new compounds evaluated with α7, α9, and α9α10 receptors. Table 1 presents the values for Imax and EC50 with these receptors and Table 2 summarizes inhibition data for the compounds with heteromeric nAChR.
Molecular Biology: Plasmid DNAs encoding the human α7 and heteromeric nAChR were obtained from Jon Lindstrom (University of Pennsylvania, Philadelphia, PA). Mouse muscle subunit clones were obtained from Jim Boulter (Salk Institute, La Jolla CA) and Paul Gardner (Dartmouth, Hanover NH). […] Plasmid DNA encoding the human α10 nAChR was obtained from J. Michael McIntosh. Plasmid DNA encoding the human α9 nAChR and the human receptor-associated protein of the synapse (RAPSYN) with codon optimization for expression in Xenopus laevis were obtained from Katrin Richter. […] After linearization and purification of the plasmid DNAs, RNAs were prepared using the mMessage mMachine in vitro RNA transcription kit (Ambion, Austin, TX). […] Oocytes were maintained in Barth's solution containing 0.32 mM Ca(NO3)2 and 0.41 mM CaCl2, and recordings were conducted 2-20 days after injection.
Electrophysiology: Two-electrode voltage-clamp experiments were conducted using OpusXpress 6000A (Molecular Devices, Union City CA, USA). Both the voltage and current electrodes were filled with 3 M KCl. Oocytes were voltage-clamped at −60 mV at rt.
(§2) The responses were calculated as both peak-current amplitudes and net charge. Data were collected at 50 Hz, filtered at 20 Hz, and analyzed by Clampfit (Molecular Devices) and Excel (Microsoft, Redmond, WA, United States). Data are expressed as means±SEM from at least five oocytes for each experiment and plotted with Kaleidagraph 4.5.2 (Abelbeck Software, Reading, PA, United States). Each episode of data acquisition was a total of 210 s and included an initial 30 s period used to define the baseline for the drug-evoked responses. After 30 s, drugs were applied, and the following 120 s were defined as the drug response period for analysis. […] The values for the curve fits were generated using the Levenberg-Marquardt algorithm to obtain the best Chi-Square fit to the Hill equation using the Kaleidagraph 4.5.2 plotting program. The errors in the tables are the calculated standard errors of the fit parameters based on the goodness of fit.

α9α10 nAChR = target: T2, α9α10 nAChR (Homo sapiens, UniProt Q9GZZ6+Q9UGM1); conditions: relative to ACh (Imax = 1); data taken from Papke et al. (2022); cited from earlier work
T2 construct: expressed in transfected cells; host or cells: Xenopus laevis oocytes, injected with in vitro transcribed RNA

α9 nAChR [3] = target: T3, α9 nAChR (Homo sapiens, UniProt Q9UGM1); assay: Two-electrode voltage-clamp, agonist concentration-response, α9 nAChR in Xenopus oocytes; type: cell-based
T3 construct: expressed in transfected cells; host or cells: Xenopus laevis oocytes, injected with in vitro transcribed RNA
Text: as §1
Molecular Biology: Plasmid DNAs encoding the human α7 and heteromeric nAChR were obtained from Jon Lindstrom (University of Pennsylvania, Philadelphia, PA). Mouse muscle subunit clones were obtained from Jim Boulter (Salk Institute, La Jolla CA) and Paul Gardner (Dartmouth, Hanover NH). The human resistance-to-cholinesterase 3 ([…]) clone was obtained from Millet Treinin (Hebrew University, Jerusalem, Israel) and RNA co-injected with α7 to improve the level and speed of receptor expression without affecting their pharmacological properties. Plasmid DNA encoding the human α10 nAChR was obtained from J. Michael McIntosh. Plasmid DNA encoding the human α9 nAChR and the human receptor-associated protein of the synapse (RAPSYN) with codon optimization for expression in Xenopus laevis were obtained from Katrin Richter. RAPSYN RNA was co-injected with the α9 and α10 to improve expression (Richter et al., (2022) Front. Cell Neurosci. 16: 779081). After linearization and purification of the plasmid DNAs, RNAs were prepared using the mMessage mMachine in vitro RNA transcription kit (Ambion, Austin, TX). Frogs were maintained in the Animal Care Service facility of the University of Florida, and all procedures were approved by the University of Florida Institutional Animal Care and Use Committee (approval number 202002669). In brief, the animals were first anesthetized for 15-20 min in 1.5 l frog tank water containing 1 g of MS-222 buffered with sodium bicarbonate. Oocytes were obtained surgically from mature female Xenopus laevis (Nasco, Ft. Atkinson WI, USA) and treated with 1.4 mg/ml type 1 collagenase (Worthington Biochemicals, Freehold NJ, USA) for 2-4 h at rt in Ca2+-free Barth's solution (88 mM NaCl, 1 mM KCl, 2.38 mM NaHCO3, 0.82 mM MgSO4, 15 mM HEPES, and 12 mg/l tetracycline, pH 7.6) to remove the ovarian tissue and the follicular layers. Stage V oocytes were injected with 4-6 ng CHRNA7 RNA and 2-3 ng RIC3 RNA (2:1 ratio) in 50 nl water, or with 12 ng CHRNA9 RNA and 3 ng RAPSN RNA, or along with 12 ng CHRNA10 RNA in 50 nl water. Oocytes were maintained in Barth's solution containing 0.32 mM Ca(NO3)2 and 0.41 mM CaCl2, and recordings were conducted 2-20 days after injection.
Electrophysiology: Two-electrode voltage-clamp experiments were conducted using OpusXpress 6000A (Molecular Devices, Union City CA, USA). Both the voltage and current electrodes were filled with 3 M KCl. Oocytes were voltage-clamped at −60 mV at rt. The oocytes were perfused with Ringer's solution (115 mM NaCl, 2.5 mM KCl, 1.8 mM CaCl2, 10 mM HEPES, 1 μM atropine, pH 7.2) at 2 ml/min. […] Drug applications were 12 s in duration followed by 181 s washout periods.
as §2, with “The errors in the tables are the calculated standard errors of the fit parameters based on the goodness of fit.” left out

α9 nAChR [4] = target: T3, α9 nAChR; conditions: earlier reports / Papke et al. (2022), Richter et al. (2022); cited from earlier work

T1 sequence (P36544 23-502): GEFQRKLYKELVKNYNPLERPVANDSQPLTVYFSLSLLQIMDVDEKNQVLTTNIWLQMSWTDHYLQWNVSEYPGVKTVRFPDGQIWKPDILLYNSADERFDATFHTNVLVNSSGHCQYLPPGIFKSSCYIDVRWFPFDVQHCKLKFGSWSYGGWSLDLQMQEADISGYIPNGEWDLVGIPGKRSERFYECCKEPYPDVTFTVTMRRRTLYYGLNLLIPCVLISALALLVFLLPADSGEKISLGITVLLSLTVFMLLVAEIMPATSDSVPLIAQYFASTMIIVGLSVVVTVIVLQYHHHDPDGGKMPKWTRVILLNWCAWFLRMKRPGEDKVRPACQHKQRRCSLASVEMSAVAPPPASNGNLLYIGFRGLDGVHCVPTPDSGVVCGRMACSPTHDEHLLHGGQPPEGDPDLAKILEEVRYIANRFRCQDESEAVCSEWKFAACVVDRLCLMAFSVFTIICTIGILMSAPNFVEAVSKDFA
T3 sequence (Q9UGM1 26-479 limits assumed): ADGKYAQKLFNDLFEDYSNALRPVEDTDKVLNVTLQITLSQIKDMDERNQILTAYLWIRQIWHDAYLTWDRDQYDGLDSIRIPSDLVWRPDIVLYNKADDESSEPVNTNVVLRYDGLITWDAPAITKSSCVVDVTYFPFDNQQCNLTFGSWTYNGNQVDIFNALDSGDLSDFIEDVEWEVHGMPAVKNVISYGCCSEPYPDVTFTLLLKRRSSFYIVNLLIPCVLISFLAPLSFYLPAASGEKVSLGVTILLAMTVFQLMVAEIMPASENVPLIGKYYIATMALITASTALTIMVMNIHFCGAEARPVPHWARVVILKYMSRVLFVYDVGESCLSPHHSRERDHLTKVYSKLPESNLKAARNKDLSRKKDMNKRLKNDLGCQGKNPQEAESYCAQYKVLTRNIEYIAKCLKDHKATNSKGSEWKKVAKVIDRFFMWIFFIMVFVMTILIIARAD
T2 sequence (Q9UGM1 26-479 limits assumed): as above
T2 sequence (Q9GZZ6 25-450): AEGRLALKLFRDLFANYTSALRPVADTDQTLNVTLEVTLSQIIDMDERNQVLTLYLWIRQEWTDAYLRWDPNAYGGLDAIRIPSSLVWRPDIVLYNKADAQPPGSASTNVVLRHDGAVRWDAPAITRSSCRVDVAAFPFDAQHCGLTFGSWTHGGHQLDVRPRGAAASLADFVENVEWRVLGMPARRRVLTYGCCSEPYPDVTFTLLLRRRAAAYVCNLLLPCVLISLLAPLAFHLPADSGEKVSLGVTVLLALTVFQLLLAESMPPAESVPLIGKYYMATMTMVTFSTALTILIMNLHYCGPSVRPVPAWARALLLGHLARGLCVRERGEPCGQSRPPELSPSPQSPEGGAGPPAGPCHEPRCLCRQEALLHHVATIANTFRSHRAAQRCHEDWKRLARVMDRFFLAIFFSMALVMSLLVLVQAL

## CC[N+]1(CC)CCN(c2ccc(C(=O)Nc3cccc(C)n3)cc2)CC1.[I-] [Compound 2, 1,1-diethyl-4-(4-((6-methylpyridin-2-yl)carbamoyl)phenyl)piperazin-1-ium iodide]
α7 nAChR [1]; data taken from Papke et al. (2022)
  EC50: 4.3 to 6.4 µM
α7 nAChR [1]; earlier reports / Papke et al. (2022)
  Agonist character at α7: partial agonists
α7 nAChR [1]; relative to ACh (Imax = 1), data taken from Papke et al. (2022)
  α7 Imax: 0.40-0.57
α7 nAChR [2]
  Agonist character / efficacy at α7: partial agonist
α9α10 nAChR
  α9α10 Imax: 0.90 ± 0.02
α9 nAChR [3]
  Agonist character / efficacy at α9: full agonist
α9 nAChR [4]
  Agonist character at α9: full α9 agonist
